Here are results for 28 compounds from patent publication US20100210649A1, “PYRIDAZINONES AND FURAN-CONTAINING COMPOUNDS” (Sloan-Kettering Institute for Cancer Research, priority 2006, published 2010).

Where two headings read alike, the source gives them in different places.

As a reminder, the inhibition is the relative decrease from the control value, in per cent.

What all share (type): cell-based, human
In one assay the test system is H1975. As to the kind of experiment: Non Small Cell Lung Cancer proliferation assay (Alamar Blue reduction), H1975. The conditions noted are these: primary screening, 10 μM compound in 1% DMSO (v/v); for inhibition at 10 µM: Homo sapiens, NCI-H1975. Here is the method:
(§1) These cells have a doubling time of 1-2 days. All cell types are adherent and grow in colonies. The cells should be kept at a density between 50,000 cells/mL -500,000 cells/mL to provide for optimum growth and adequate nutrition. The cell line should be maintained at 37° C. in a humidified atmosphere with 5% CO2 in a sterile cell culture incubator.
(§2) Non Small Cell Lung Cancer Proliferation Assay.
(§3) High Controls for this assay are made by treating Non Small Cell Lung Cancer cells with 5 ul of 10% DMSO. [Final concentration in this assay is 1% DMSO].
(§4) Important Note: All compounds for testing in this assay should be done at the final concentration of 1% DMSO.
(§5) After addition, the cells are placed in cell culture incubator at 37° C. for 48 hours for complete treatment.
(§6) After drug treatment, cytotoxicity is measured by Alamar Blue reduction.
(§7) The cells are incubated for 48 hours at 37° C. to complete the Alamar Blue reduction.
(§8) The final step in the assay is to measure the amount of Alamar Blue reduction. […] The Alamar Blue fluorescence is measured at an excitation of 530 nm and emission of 590 nm.
(§9) For the NSCLC project, the cell based assay was screened against a small molecule library of approximately 200,000 compounds. The compound library is stored in our automated robotic freezer (Biophile) at −20° C. in 100% DMSO. Compound freeze and thaw cycles are kept to a minimum. […] This assay was performed on a fully automated linear track robotic platform (CRS F3 Robot System, Thermo Electron Corp., Ontario, Canada) utilizing several integrated peripherals for plate handling, liquid dispensing, and readout detection. […] The microplates are then placed at 37° C. for 48 hours to complete treatment of cells with compounds. Next, 5 ul of alamar blue was added using a liquid dispenser (Flexprop Precision Dispenser, Perkin Elmer, Mass., USA) and incubated for 48 hours at 37° C. The alamar blue prompt fluorescence was measured on Victor V (Victor^3 V, Perkin Elmer, Mass., USA) and output data files were loaded into ORIS (Oncology Research Informatics System, MSKCC, NY, USA), a screening data acquisition and analysis platform.
(§10) The dose response studies were done with the following standard procedure. First, the cells were counted and dispensed at 250 cells/well into 384-well microplates with compound. The cells were incubated for 48 hours at 37 C to complete treatment, and then alamar blue was added for an additional 48 hours. Finally, alamar blue reduction was measured and the data was loaded into ORIS, our data screening acquisition platform.

The subject of the next assay is H1650. As to the kind of experiment: Non Small Cell Lung Cancer proliferation assay (Alamar Blue reduction), H1650. The conditions noted are these: primary screening, 10 μM compound in 1% DMSO (v/v); for inhibition at 10 µM: Homo sapiens, NCI-H1650. Here is the method:
as §1, §2, §3, §4, §5, §6, §7, §8, §9, §10

In a further assay the test system is H2030. As to the kind of experiment: Non Small Cell Lung Cancer proliferation assay (Alamar Blue reduction), H2030. Conditions: primary screening, 10 μM compound in 1% DMSO (v/v); for inhibition at 10 µM: Homo sapiens, NCI-H2030. Here is the method: as §1, §2, §3, §4, §5, §6, §7, §8, §9, §10
The next assay concerns H3255. In words: Non Small Cell Lung Cancer proliferation assay (Alamar Blue reduction), H3255. The conditions noted are these: primary screening, 10 μM compound in 1% DMSO (v/v); for inhibition at 10 µM: Homo sapiens, NCI-H3255. Here is the method: as §1, §2, §3, §4, §5, §6, §7, §8, §9, §10
For orientation: The colour change of resazurin is a common sign of viable cells or microbes.

The mark [1] stands for this setting: read-out: percentage inhibition H1975.
Setting [2] is: read-out: percentage inhibition H1650.
[3] abbreviates: read-out: percentage inhibition H2030.
[4] abbreviates: read-out: percentage inhibition H3255.
The mark [5] stands for this setting: H1975, read-out: PRIMARY HTS [%] H1975 (percentage inhibition).
[6] abbreviates: H1650, read-out: PRIMARY HTS [%] H1650 (percentage inhibition).
Where [7] appears, read: H2030, read-out: PRIMARY HTS [%] H2030 (percentage inhibition).
Setting [8] is: H3255, read-out: PRIMARY HTS [%] H3255 (percentage inhibition).

`O=c1c(SCc2ccc(Cl)cc2)c(SCc2ccccc2)cnn1-c1ccccc1` [compound 208704]: the inhibition at 10 µM with H1975 (setting [1]) was -6%; in the assay with H1650 (setting [2]), -10%; with H2030 (setting [3]), -15%; in the assay with H3255 (setting [4]), -23%.
For the compound `O=c1c2c(cnn1-c1ccccc1)SC(c1ccccc1)S2` (stereo not shown) [compound 182826], in the assay on H1975, the “percentage inhibition H1975” value is reported as 12%. The “percentage inhibition H1650” value in the assay with H1650 is given as 13%. Also, the “percentage inhibition H2030” value in the assay with H2030 was −11%. The “percentage inhibition H3255” value in the assay on H3255 was −13%.
Take `Cc1cc([N+](=O)[O-])ccc1NC(=O)c1ccco1` [compound 79434]: the inhibition at 10 µM is -7% in the assay on H1975 (setting [5]), 4% in the assay with H1650 (setting [6]), 0% in the assay with H2030 (setting [7]) and 4% in the assay with H3255 (setting [8]).
Take `O=c1c(Sc2ccccc2)c(Sc2ccccc2)cnn1-c1ccccc1` [compound 195070]: the inhibition at 10 µM in the assay with H1975 (setting [1]) was 9%; with H1650 (setting [2]), 8%; in the assay on H2030 (setting [3]), -7%; with H3255 (setting [4]), -73%.
For the compound `CCCCSc1cnn(-c2ccccc2)c(=O)c1SCc1ccccc1` [compound 208696], the inhibition at 10 µM in the assay on H1975 (setting [1]) is -19%; in the assay with H1650 (setting [2]), -2%; in the assay with H2030 (setting [3]), 4%; in the assay with H3255 (setting [4]), 37%.
In the case of `Cc1ccc(C(C)C)c(OCC(=O)Oc2ccc(=O)n(-c3ccccc3)n2)c1` [compound 228706], the inhibition at 10 µM in the assay on H1975 (setting [1]) was -11%; with H1650 (setting [2]), -16%; in the assay with H2030 (setting [3]), 5%; in the assay with H3255 (setting [4]), -25%.
For the compound `Cc1cccc(-n2ncc(SCc3ccccc3)c(SCc3ccccc3)c2=O)c1` [compound 208703], the inhibition at 10 µM in the assay with H1975 (setting [1]) was -18%; in the assay with H1650 (setting [2]), 2%; in the assay with H2030 (setting [3]), 9%; with H3255 (setting [4]) it was 16%.
In the case of `O=c1ccc(Cl)nn1-c1ccc(Br)cc1` [compound 222922], the inhibition at 10 µM was 3% in the assay on H1975 (setting [1]), -20% in the assay with H1650 (setting [2]), -30% with H2030 (setting [3]) and -7% in the assay on H3255 (setting [4]).
On to `CSc1cnn(-c2ccccc2)c(=O)c1SCc1ccccc1` [compound 224764], for which the inhibition at 10 µM in the assay with H1975 (setting [1]) is -5%; in the assay on H1650 (setting [2]) it was 21%; in the assay on H2030 (setting [3]) it was -10%; with H3255 (setting [4]), -32%.
In the case of `Cc1cc(Cl)ccc1NC(=O)CN1CCN(C(=O)c2ccco2)CC1` [compound 83809], the inhibition at 10 µM with H1975 (setting [5]) is -10%; in the assay with H1650 (setting [6]) it was 22%; in the assay with H2030 (setting [7]), 2%; in the assay on H3255 (setting [8]), 2%.
As for `O=c1c(Br)c(-n2cc(CO)nn2)cnn1-c1ccccc1` [compound 224256], the inhibition at 10 µM in the assay on H1975 (setting [1]) came to 102%; in the assay with H1650 (setting [2]), 103%; with H2030 (setting [3]) it was 1%; in the assay on H3255 (setting [4]) it was 110%.
For `CCSc1cnn(-c2ccccc2)c(=O)c1Cl` [compound 103997], the inhibition at 10 µM in the assay with H1975 (setting [1]) is 98%; in the assay on H1650 (setting [2]), -15%; in the assay with H2030 (setting [3]) it was 9%; with H3255 (setting [4]), 2%.
On to `O=c1ccc(Cl)nn1-c1cccc(Br)c1` [compound 178393], for which the inhibition at 10 µM in the assay on H1975 (setting [1]) was 3%; with H1650 (setting [2]), 8%; in the assay with H2030 (setting [3]), -11%; with H3255 (setting [4]), -4%.
`O=c1c(SCc2ccccc2)cc(Cl)nn1-c1ccccc1` [compound 208702]: the inhibition at 10 µM with H1975 (setting [1]) was -16%; with H1650 (setting [2]) it was 3%; in the assay with H2030 (setting [3]), -15%; in the assay on H3255 (setting [4]), 0%.
Take `COc1cnn(-c2cccc(Cl)c2)c(=O)c1Cl` [compound 104390]: the inhibition at 10 µM in the assay on H1975 (setting [1]) is 4%; in the assay with H1650 (setting [2]) it was 15%; in the assay with H2030 (setting [3]), -6%; in the assay on H3255 (setting [4]), 34%.
Consider `O=c1c(SCc2ccccc2)c(N2CCCCC2)cnn1-c1ccccc1` [compound 195989], for which the inhibition at 10 µM in the assay on H1975 (setting [1]) was 35%; in the assay on H1650 (setting [2]) it was 21%; in the assay on H2030 (setting [3]), 6%; in the assay on H3255 (setting [4]) it was -27%.
In the same order, the values of `Cc1cc(N(C)C)c(=O)n(-c2ccccc2)n1` [compound 189015] are 29%, 21%, -4% and 32%.
As to `O=C(c1ccc([N+](=O)[O-])o1)N(c1ccccc1)c1ccccc1` [compound 98705], the inhibition at 10 µM in the assay on H1975 (setting [5]) is 14%; in the assay on H1650 (setting [6]), -8%; in the assay on H2030 (setting [7]), 8%; in the assay on H3255 (setting [8]) it was 9%.
Take `O=c1c(Cl)c(Cl)cnn1-c1ccc(Cl)cc1` [compound 104004]: the inhibition at 10 µM in the assay with H1975 (setting [1]) was found to be 98%; in the assay on H1650 (setting [2]), 1%; with H2030 (setting [3]), 75%; in the assay on H3255 (setting [4]), 90%.
In the case of `O=C(COCCOc1cnn(-c2ccccc2)c(=O)c1Cl)c1ccccc1` [compound 199760], the inhibition at 10 µM in the assay with H1975 (setting [1]) was -22%; with H1650 (setting [2]), 12%; in the assay on H2030 (setting [3]), 21%; with H3255 (setting [4]) it was 6%.
Regarding `Cc1cccc(N2CCN(Cc3ccc([N+](=O)[O-])o3)CC2)c1C` [compound 101070], the inhibition at 10 µM with H1975 (setting [5]) is -18%; in the assay with H1650 (setting [6]) it was 2%; in the assay on H2030 (setting [7]), 5%; with H3255 (setting [8]), 1%.
In the case of `O=c1c(Cl)c(Cl)cnn1-c1ccc(Cl)c(C(F)(F)F)c1` [compound 103719], the inhibition at 10 µM amounted to 102% in the assay on H1975 (setting [1]), 45% in the assay with H1650 (setting [2]), 94% in the assay on H2030 (setting [3]) and 76% in the assay on H3255 (setting [4]).
Turning to `COc1cnn(-c2ccccc2)c(=O)c1Cl` [compound 104386], the inhibition at 10 µM was -11% in the assay on H1975 (setting [1]), -12% with H1650 (setting [2]), 6% with H2030 (setting [3]) and 0% in the assay with H3255 (setting [4]).
The matching figures for `CN1CCN(c2cnn(-c3ccc(Cl)cc3)c(=O)c2Cl)CC1` [compound 194618]: -3%, -15%, -6% and -48%.
`O=C(Nc1ccc(NC(=O)c2ccco2)c(O)c1)c1ccccc1` [compound 76839]: the inhibition at 10 µM in the assay on H1975 (setting [5]) is 3%; in the assay on H1650 (setting [6]), 20%; in the assay on H2030 (setting [7]), -6%; in the assay with H3255 (setting [8]) it was 2%.
As to `O=[N+]([O-])c1ccc(CN2CCN(c3ccccc3)CC2)o1` [compound 100483], the inhibition at 10 µM is -8% with H1975 (setting [5]), -1% in the assay on H1650 (setting [6]), -1% in the assay with H2030 (setting [7]) and 1% in the assay with H3255 (setting [8]).
Regarding `CCOc1c(Cl)cnn(-c2ccccc2)c1=O` [compound 104288], the inhibition at 10 µM in the assay with H1975 (setting [1]) was 102%; in the assay with H1650 (setting [2]), -13%; in the assay on H2030 (setting [3]), 66%; in the assay on H3255 (setting [4]), 46%.
With `O=C(Nc1ccc(-c2ccc([N+](=O)[O-])cc2)cc1)c1ccco1` [compound 102031], the inhibition at 10 µM in the assay on H1975 (setting [5]) is -11%; in the assay on H1650 (setting [6]) it was -2%; with H2030 (setting [7]), -1%; in the assay on H3255 (setting [8]), 3%.
